The record followed here is patent US10577363B2, “Substituted piperidine compounds” (EPIZYME, INC., priority 2014, dated 2020).

In assay [1] the target is T1, SMYD3 (Homo sapiens (Human), UniProt Q9H7B4). The experiment in a line: SMYD3 biochemical assay (SPA, 3H-SAM methylation of MEKK2 protein substrate). The conditions noted are these: read-out: SMYD3 Biochem IC50*. The gist of the method: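 Native full-length human SMYD3 (E. coli-expressed, tags removed) was preincubated with compound for 30 min at room temperature in 25 mM Tris-Cl pH 8.0, 1 mM TCEP, 0.005% BSG, 0.005% Tween 20. Reaction was started with 3H-SAM plus GST-MEKK2, quenched with 100 uM unlabeled SAM, and read by SPA scintillation counting.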

Assay [2] has as its target T1, SMYD3. The experiment in a line: SMYD3 cell assay (Trimethyl-MEKK2 In-Cell Western in 293T/17 cells). Conditions: read-out: SMYD3 Cell IC50*. The assay is classed as cell-based. The gist of the method: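 In-Cell Western ratio of trimethyl-Lys260 MEKK2 to anti-flag signal; percent inhibition from DMSO and maximum-inhibition controls, IC50 by non-linear regression, triplicates.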

T1 sequence (Q9H7B4 whole entry): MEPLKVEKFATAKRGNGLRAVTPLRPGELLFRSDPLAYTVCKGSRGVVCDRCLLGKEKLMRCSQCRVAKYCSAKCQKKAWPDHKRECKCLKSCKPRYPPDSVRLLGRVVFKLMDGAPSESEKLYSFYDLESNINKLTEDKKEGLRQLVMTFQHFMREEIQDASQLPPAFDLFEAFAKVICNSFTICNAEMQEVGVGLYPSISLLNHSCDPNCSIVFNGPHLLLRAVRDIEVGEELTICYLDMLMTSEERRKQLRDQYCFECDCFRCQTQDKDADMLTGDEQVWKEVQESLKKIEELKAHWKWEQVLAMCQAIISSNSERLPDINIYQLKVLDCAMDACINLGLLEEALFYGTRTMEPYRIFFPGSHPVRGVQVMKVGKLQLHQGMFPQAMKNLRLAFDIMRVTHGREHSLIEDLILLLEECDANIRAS

The term IC50 denotes the concentration needed to halve the response being measured. In the case of `COCCN(C)C1CCN(S(=O)(=O)N2[C@@H]3CC[C@H]2C[C@@H](NC(=O)c2cc(C4CC4)on2)C3)CC1` [compound 916, 5-cyclopropyl-N-((1R,3r,5S)-8-((4-((2-methoxyethyl)(methyl)amino)piperidin-1-yl)sulfonyl)-8-azabicyclo[3.2.1]octan-3-yl)isoxazole-3-carboxamide], the IC50 stood at 0.0233 µM in assay [1] and 0.247 µM in assay [2].

Regarding `CN(CCN1CCCC1)C1CCN(S(=O)(=O)N2[C@@H]3CC[C@H]2C[C@@H](NC(=O)c2cc(C4CC4)on2)C3)CC1` [compound 917, 5-cyclopropyl-N-((1R,3r,5S)-8-((4-(methyl(2-(pyrrolidin-1-yl)ethyl)amino)piperidin-1-yl)sulfonyl)-8-azabicyclo[3.2.1]octan-3-yl)isoxazole-3-carboxamide], the IC50 in assay [1] stood at 0.0249 µM; in assay [2] it was 0.379 µM.

Consider `O=C(N[C@H]1C[C@H]2CC[C@@H](C1)N2S(=O)(=O)N1CCC(NCCC(F)(F)F)CC1)c1cc(C2CC2)on1` [compound 918, 5-cyclopropyl-N-((1R,3r,5S)-8-((4-((3,3,3-trifluoropropyl)amino)piperidin-1-yl)sulfonyl)-8-azabicyclo[3.2.1]octan-3-yl)isoxazole-3-carboxamide], for which the values for the IC50 in assay [1] and in assay [2] were 0.025 µM and 0.148 µM, respectively.

For the molecule `O=C(N[C@H]1C[C@H]2CC[C@@H](C1)N2S(=O)(=O)C[C@@H]1CCCCN1)c1cc(C2CC2)on1` [compound 919, 5-cyclopropyl-N-((1R,3S,5S)-8-((((S)-piperidin-2-yl)methyl)sulfonyl)-8-azabicyclo[3.2.1]octan-3-yl)isoxazole-3-carboxamide], the IC50 was found to be 0.0254 µM in assay [1] and 0.243 µM in assay [2].

On to `O=C(N[C@H]1C[C@H]2CC[C@@H](C1)N2S(=O)(=O)[C@H]1CC[C@@H](NCCN2CCOCC2)CC1)c1cc(C2CC2)on1` [compound 920, 5-cyclopropyl-N-((1R,3R,5S)-8-(((1s,4S)-4-((2-morpholinoethyl)amino)cyclohexyl)sulfonyl)-8-azabicyclo[3.2.1]octan-3-yl)isoxazole-3-carboxamide], for which the IC50 in assay [1] stood at 0.0266 µM; in assay [2] it was 0.499 µM.

On to `CN(CCO)C1CCN(CCS(=O)(=O)N2[C@@H]3CC[C@H]2C[C@@H](NC(=O)c2cc(C4CC4)on2)C3)C1` (stereo partly drawn) [compound 921, 5-cyclopropyl-N-((1R,3r,5S)-8-((2-(3-((2-hydroxyethyl)(methyl)amino)pyrrolidin-1-yl)ethyl)sulfonyl)-8-azabicyclo[3.2.1]octan-3-yl)isoxazole-3-carboxamide], for which the IC50 in assay [1] was 0.0277 µM; in assay [2], 0.373 µM.

For `O=C(N[C@H]1C[C@H]2CC[C@@H](C1)N2S(=O)(=O)N1CCC(NCCN2CCCC2)CC1)c1cc(C2CC2)on1` [compound 922, 5-cyclopropyl-N-((1R,3r,5S)-8-((4-((2-(pyrrolidin-1-yl)ethyl)amino)piperidin-1-yl)sulfonyl)-8-azabicyclo[3.2.1]octan-3-yl)isoxazole-3-carboxamide], the IC50 is 0.0281 µM in assay [1] and 0.282 µM in assay [2].

For `C[C@@H](NC1CCN(S(=O)(=O)N2[C@@H]3CC[C@H]2C[C@@H](NC(=O)c2cc(C4CC4)on2)C3)CC1)c1ccccc1` [compound 923, 5-cyclopropyl-N-((1R,3R,5S)-8-((4-(((R)-1-phenylethyl)amino)piperidin-1-yl)sulfonyl)-8-azabicyclo[3.2.1]octan-3-yl)isoxazole-3-carboxamide], the IC50 came to 0.0286 µM in assay [1] and 0.31 µM in assay [2].

As for `O=C(N[C@H]1C[C@H]2CC[C@@H](C1)N2S(=O)(=O)N1CCC(NCc2c(F)cccc2F)CC1)c1cc(C2CC2)on1` [compound 924, 5-cyclopropyl-N-((1R,3r,5S)-8-((4-((2,6-difluorobenzyl)amino)piperidin-1-yl)sulfonyl)-8-azabicyclo[3.2.1]octan-3-yl)isoxazole-3-carboxamide], the IC50 in assay [1] is 0.0289 µM; in assay [2], 0.67 µM.

Take `CC(C)C1CN(S(=O)(=O)N2[C@@H]3CC[C@H]2C[C@@H](NC(=O)c2cc(C4CC4)on2)C3)CCN1` (stereo partly drawn) [compound 925, 5-cyclopropyl-N-((1R,3r,5S)-8-((3-isopropylpiperazin-1-yl)sulfonyl)-8-azabicyclo[3.2.1]octan-3-yl)isoxazole-3-carboxamide]: the IC50 is 0.0299 µM in assay [1] and 0.34 µM in assay [2].

Consider `CN1CCC[C@@H](S(=O)(=O)N2[C@@H]3CC[C@H]2C[C@@H](NC(=O)c2cc(C4CC4)on2)C3)C1` [compound 926, 5-cyclopropyl-N-((1R,3R,5S)-8-(((R)-1-methylpiperidin-3-yl)sulfonyl)-8-azabicyclo[3.2.1]octan-3-yl)isoxazole-3-carboxamide], for which the IC50 in assay [1] turned out to be 0.03 µM; in assay [2] it was 0.209 µM.

For the molecule `C[C@H](NC1CCN(S(=O)(=O)N2[C@@H]3CC[C@H]2C[C@@H](NC(=O)c2cc(C4CC4)on2)C3)CC1)c1ccccc1` [compound 927, 5-cyclopropyl-N-((1R,3S,5S)-8-((4-(((S)-1-phenylethyl)amino)piperidin-1-yl)sulfonyl)-8-azabicyclo[3.2.1]octan-3-yl)isoxazole-3-carboxamide], the IC50 in assay [1] was 0.0309 µM; in assay [2], 0.403 µM.

Consider `CC(C)NC1CCN(S(=O)(=O)N2[C@@H]3CC[C@H]2C[C@@H](NC(=O)c2cc(C4CC4)on2)C3)CC1` [compound 928, 5-cyclopropyl-N-((1R,3r,5S)-8-((4-(isopropylamino)piperidin-1-yl)sulfonyl)-8-azabicyclo[3.2.1]octan-3-yl)isoxazole-3-carboxamide], for which the IC50 in assay [1] was determined as 0.0362 µM; in assay [2], 0.512 µM.

For `NCc1ccc(S(=O)(=O)N2[C@@H]3CC[C@H]2C[C@@H](NC(=O)c2cc(C4CC4)on2)C3)cc1` [compound 929, N-((1R,3r,5S)-8-((4-(aminomethyl)phenyl)sulfonyl)-8-azabicyclo[3.2.1]octan-3-yl)-5-cyclopropylisoxazole-3-carboxamide], the half-inhibitory concentration (IC50) was 0.0368 µM in assay [1] and no less than 10 µM in assay [2].

Regarding `O=C(N[C@H]1C[C@H]2CC[C@@H](C1)N2S(=O)(=O)C[C@@H]1CCCN1)c1cc(C2CC2)on1` [compound 930, 5-cyclopropyl-N-((1R,3S,5S)-8-((((S)-pyrrolidin-2-yl)methyl)sulfonyl)-8-azabicyclo[3.2.1]octan-3-yl)isoxazole-3-carboxamide], the half-inhibitory concentration (IC50) in assay [1] was found to be 0.0371 µM; in assay [2], 0.351 µM.

As for `C[C@H](N)c1ccc(S(=O)(=O)N2[C@@H]3CC[C@H]2C[C@@H](NC(=O)c2cc(C4CC4)on2)C3)cc1` [compound 931, N-((1R,3S,5S)-8-((4-((S)-1-aminoethyl)phenyl)sulfonyl)-8-azabicyclo[3.2.1]octan-3-yl)-5-cyclopropylisoxazole-3-carboxamide], the IC50 came to 0.0372 µM in assay [1] and 0.526 µM in assay [2].

As for `C[C@H]1C[C@@H](NC(=O)c2cc(C3CC3)on2)CCN1S(=O)(=O)N1C[C@H]2CC[C@@H](C1)[C@@H]2N` [compound 932, N-((2S,4S)-1-(((1R,5S,8R)-8-amino-3-azabicyclo[3.2.1]octan-3-yl)sulfonyl)-2-methylpiperidin-4-yl)-5-cyclopropylisoxazole-3-carboxamide], the IC50 was 0.0387 µM in assay [1] and 0.351 µM in assay [2].

With `CN1CC2CC(C1)N2S(=O)(=O)N1[C@@H]2CC[C@H]1C[C@@H](NC(=O)c1cc(C3CC3)on1)C2` [compound 933, 5-cyclopropyl-N-((1R,3r,5S)-8-((3-methyl-3,6-diazabicyclo[3.1.1]heptan-6-yl)sulfonyl)-8-azabicyclo[3.2.1]octan-3-yl)isoxazole-3-carboxamide], the values for the IC50 in assay [1] and in assay [2] were 0.0424 µM and 0.0919 µM, respectively.

In the case of `C[C@@H](N)c1ccc(S(=O)(=O)N2[C@@H]3CC[C@H]2C[C@@H](NC(=O)c2cc(C4CC4)on2)C3)cc1` [compound 934, N-((1R,3R,5S)-8-((4-((R)-1-aminoethyl)phenyl)sulfonyl)-8-azabicyclo[3.2.1]octan-3-yl)-5-cyclopropylisoxazole-3-carboxamide], the values for the IC50 in assay [1] and in assay [2] were 0.0424 µM and 0.494 µM, respectively.

Consider `C[C@H]1C[C@@H](NC(=O)c2cc(C3CC3)on2)CCN1S(=O)(=O)N1CCC(N(C)CCN2CCOCC2)CC1` [compound 935, 5-cyclopropyl-N-((2S,4S)-2-methyl-1-((4-(methyl(2-morpholinoethyl)amino)piperidin-1-yl)sulfonyl)piperidin-4-yl)isoxazole-3-carboxamide], for which the results for the IC50 in assay [1] and in assay [2] were 0.043 µM and 0.414 µM, respectively.

Regarding `CN(CCCN1CCOCC1)C1CCN(S(=O)(=O)N2[C@@H]3CC[C@H]2C[C@@H](NC(=O)c2cc(C4CC4)on2)C3)CC1` [compound 936, 5-cyclopropyl-N-((1R,3r,5S)-8-((4-(methyl(3-morpholinopropyl)amino)piperidin-1-yl)sulfonyl)-8-azabicyclo[3.2.1]octan-3-yl)isoxazole-3-carboxamide], the IC50 in assay [1] came to 0.0438 µM; in assay [2] it was 0.623 µM.

On to `CC[C@@H]1CNCCN1S(=O)(=O)N1CC[C@H](NC(=O)c2cc(C3CC3)on2)C[C@@H]1C` [compound 937, 5-cyclopropyl-N-((2S,4S)-1-(((R)-2-ethylpiperazin-1-yl)sulfonyl)-2-methylpiperidin-4-yl)isoxazole-3-carboxamide], for which the IC50 in assay [1] is 0.0439 µM; in assay [2] it was 0.484 µM.

Regarding `N#Cc1ccc(CNC2CCN(S(=O)(=O)N3[C@@H]4CC[C@H]3C[C@@H](NC(=O)c3cc(C5CC5)on3)C4)CC2)cc1` [compound 938, N-((1R,3r,5S)-8-((4-((4-cyanobenzyl)amino)piperidin-1-yl)sulfonyl)-8-azabicyclo[3.2.1]octan-3-yl)-5-cyclopropylisoxazole-3-carboxamide], the IC50 in assay [1] is 0.0441 µM; in assay [2], 0.508 µM.
